Patent publication US20230390273A1, “4-PHENYL-TETRAHYDROPYRIDINE DERIVATIVES FOR TREATING HEARING DISEASES” (CILCARE DEV, priority 2021, published 2023)
Where a name gives a salt, the structure may show the parent alone. Read-outs that look alike come from different tables or passages of the source.

Tests used:
[1] = tested on: synaptic ribbons in inner hair cells; assay: Ribbon synapse immunostaining and counting in cochlea, delayed treatment (Example 7); assay type: in vivo, male Wistar rats; conditions: for Number of pre-synaptic and post-synaptic elements (CtBP2 and Homer) per IHC / Number of colocalized ribbons per IHC: 25 kHz, vs traumatized vehicle and NaCl groups, 2 days and 9 days post-noise; for Number of colocalized ribbons per IHC: statistically significant for Paliroden; for Synapse loss in the inner hair cells (FIG. 8): regions coding high frequency sounds, printed 2 hours and 8 days post-noise
Description: At T+28 days, after DPOAE/ABR measures, 10 cochlea (all eight (8) left cochleae and two (2) right cochleae taken randomly) per group were rapidly sampled and immediately fixed by PFA perfusion (through the round and oval windows with PFA 4% after creating a small hole at the apex) in order to performed ribbon synapse immunostaining and analysis. Cochleae were fixed for 1 hour in a 4% PFA solution and decalcified in undiluted RDO (10 mL/cochlea for a minimum of 2 hours). The membranous and sensory spiral containing the organ of Corti are dissected out as a flat surface preparation under a dissecting microscope and immunolabelled with appropriate antibodies: • Vglut3 (Vglut3-Guinea Pig IgG; #135 204, Synaptic systems and Anti-Guinea Pig IgG (H+L), #A21450; Thermo Fisher Scientific 647 nm Far-Red) to stain inner hair cell bodies (vesicular glutamate transporter). • Homer (Homer-Rabbit IgG; #GTX103278; Genetex and Anti-Rabbit IgG (H+L) #A11008 Thermo Fisher Scientific 568 nm Red) to stain dendritic proteins of auditory nerve fibers connecting to IHC (post-synaptic). • CtBP2 (CtBP2-Mouse-IgG1; #612044; BD Transduction Laboratories and Anti-Mouse IgG1, #A21121, Thermo Fisher Scientific 488 Green) to stain the ribeye protein as pre-synaptic marker in IHC. • Phalloidin (Alexa Fluor™ Plus 405 Phalloidin; #A30104; Thermo Fisher Scientific 405 Blue).
Images were acquired on a confocal microscope and the slides were analyzed to i) evaluate by visual observation the presence of OHC and IHC (based on nuclei staining with CtBP2 and HC cell body staining with phalloidin) and ii) count the number of synaptic ribbons in selected inner hair cells in cochlea regions coding sound of selected frequency (16 kHz, 25 kHz and 32 kHz).
The number of pre- (CtBP2) and post-synaptic (Homer) labeled spots was counted using Imaris software in 3 dimensions for each image. Co-localization of pre- and post-synaptic elements was defined as a distance of maximum […] between CtBP2- and Homer-labeled spots, using an in-house Matlab program to calculate the distances between CtBP2 and Homer labels from the x, y, and z coordinates.

[2] = Solubility of paliroden and xaliproden in trans-tympanic compositions and in water (Example 2); assay type: physicochemical
Description: Eight compositions compatible with trans-tympanic injections were prepared: four thermoreversible gel compositions and four lipid-based mucoadhesive solutions. These eight compositions were prepared both with paliroden fumarate as active agent, and with xaliproden hydrochloride as active agent. The solubility of respectively paliroden and xaliproden in the compositions was measured.

[3] = Plasma and inner ear fluid exposure after single trans-tympanic injection in thermoreversible hydrogel composition (Example 4); assay type: in vivo, male Wistar rats; conditions: for concentration at 7 days / concentration at 168 h / concentration at 1 h / concentration at 24 h: male, Wistar, other: trans-tympanic injection; for concentration at 7 days: inner ear fluid, read-out: Concentrations in the inner ear fluid at 7 days post injection; for concentration at 7 days / High concentrations rapidly reached in the inner ear fluid / High concentrations rapidly reached in the IEF (molar): trans-tympanic injection; for concentration at 1 h: T0 + 1 hour; for concentration at 24 h: T0 + 24 hours; for High concentrations rapidly reached in the inner ear fluid: summary
Description: Composition 4P and composition 4X as described in example 2 were administered to male Wistar rats (5 animals per active agent and timepoint), as described below.
At time T0, 30 μL of composition 4P were administered to 15 rats, in a single ear via trans-tympanic injection. The dose of paliroden fumarate that has been administered is thus of 300 μg in one ear of each rat.
At time T0, 30 μL of composition 4X were administered to 15 other rats, in a single ear via trans-tympanic injection. The dose of xaliproden hydrochloride that has been administered is thus of 150 μg in one ear of each rat.
For the 15 rats that have received composition 4P and for the 15 rats that have received composition 4X, plasmatic and inner ear expositions were determined via blood and cochlea terminal sampling in order to achieve lithium-heparin plasma and inner ear fluid preparation, at T+1 hour, T+24 hours and T+168 hours. Bioanalytical methods were validated in both matrices (lithium heparin plasma and inner ear fluid) with a range of 0.2 to 815 ng/mL for paliroden (fumarate salt) and 0.38 to 763 ng/mL for xaliproden (hydrochloride salt).

[4] = rat inner ear fluid, trans-tympanic 300 μg, thermoreversible hydrogel, read-out: Concentration of paliroden (fumarate salt), IEF, Mean
[5] = plasma, rat, trans-tympanic 300 μg one ear, suspension in thermoreversible hydrogel, read-out: Concentration of paliroden (fumarate salt), Plasma, Mean
[6] = rat, suspension in thermoreversible hydrogel
[7] = rat, thermoreversible hydrogel, approximate conversion
[8] = plasma, 150 μg in one ear, rat, trans-tympanic 150 μg one ear, suspension in thermoreversible hydrogel, read-out: Concentration of xaliproden (hydrochloride salt), Plasma, Mean

solubility [2] | concentration at 7 days ([3]; 300 μg, rat, thermoreversible hydrogel, approximate conversion) | concentration at 7 days ([3]; rat, thermoreversible hydrogel) | concentration at 168 h ([3]; 300 μg in one ear, rat inner ear fluid, trans-tympanic 300 μg, thermoreversible hydrogel, T0 + 168 hours, n = 4, read-out: Concentration of paliroden (fumarate salt), IEF, Mean) | concentration at 1 h [3, 4] | concentration at 24 h [3, 4] | concentration at 168 h ([3]; plasma, 300 μg in one ear, rat, trans-tympanic 300 μg one ear, suspension in thermoreversible hydrogel, T0 + 168 hours, read-out: Concentration of paliroden (fumarate salt), Plasma, Mean) | concentration at 1 h [3, 5] | concentration at 24 h [3, 5] | High concentrations rapidly reached in the inner ear fluid [3, 6] | High concentrations rapidly reached in the IEF (molar) [3, 7] | concentration at 1 h ([3]; 150 μg in one ear, rat inner ear fluid, trans-tympanic 150 μg, thermoreversible hydrogel, n = 4, read-out: Concentration of xaliproden (hydrochloride salt), IEF, Mean) | concentration at 24 h ([3]; 150 μg in one ear, rat inner ear fluid, trans-tympanic 150 μg, thermoreversible hydrogel, read-out: Concentration of xaliproden (hydrochloride salt), IEF, Mean) | concentration at 168 h ([3]; 150 μg in one ear, rat inner ear fluid, trans-tympanic 150 μg, thermoreversible hydrogel, T0 + 168 hours, read-out: Concentration of xaliproden (hydrochloride salt), IEF, Mean) | concentration at 1 h [3, 8] | concentration at 24 h [3, 8] | Concentration of xaliproden (hydrochloride salt), Plasma, Mean ([3]; rat, trans-tympanic 150 μg one ear, suspension in thermoreversible hydrogel, T0 + 168 hours) | SMILES | Number of pre-synaptic and post-synaptic elements (CtBP2 and Homer) per IHC [1] | Number of colocalized ribbons per IHC [1] | Synapse loss in the inner hair cells (FIG. 8) [1]
< 100 µg/mL | ~1200 nM | ~600 ng/mL | 687 ng/mL | 5490 ng/mL | 1370 ng/mL | 0.2 ng/mL | 1 ng/mL | 0.4 ng/mL | approximately 5000 ng/mL | approximately 10 μM |  |  |  |  |  |  | FC(F)(F)c1cccc(C2=CCN(CCc3ccc(-c4ccccc4)cc3)CC2)c1 [paliroden (fumarate salt), 1-[2-(4-biphenylyl)ethyl]-4-(3-trifluoromethylphenyl)-1,2,3,6-tetrahydropyridine] | increase | increase | significantly repair synapse loss
< 100 µg/mL |  | ~100 ng/mL |  |  |  |  |  |  | approximately 5000 ng/mL | approximately 10 μM | 5610 ng/mL | 108 ng/mL | 117 ng/mL | 4.9 ng/mL | 9.2 ng/mL | BLQ | FC(F)(F)c1cccc(C2=CCN(CCc3ccc4ccccc4c3)CC2)c1 [xaliproden (hydrochloride salt), 1-[2-(2-naphthyl)ethyl]-4-(3-trifluoromethylphenyl)-1,2,3,6-tetrahydropyridine] | increase | increase | significantly repair synapse loss
